Measured values: the supplement of paper PMC10883282

Key:
Experiment in all cases: relative viability vs DMSO control (72 h) (fraction); higher = more viable cells
[1] = system: SW1353
Outline: (§1)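 After seeding at densities set for 80–90% confluence in 384-well plates, sarcoma cell lines waited 24 h before 2.5 µl of serially diluted compound was added. Source plates held 10 mM down to 0.0002 mM. Plates were incubated 72 h at 37 °C with 5% CO2, with 0.1% DMSO vehicle and a 5 µM positive control, and relative viability was taken from ATPLite as percent growth averaged over up to triplicate wells, with 1 set as full and 0 as none.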

[2] = system: SK-LMS-1
Outline: as §1

[3] = system: RD
Outline: as §1

[4] = system: KHOS-240S
Outline: as §1

[5] = system: SW872
Outline: as §1

[6] = system: G401
Outline: as §1

[7] = system: HS729
Outline: as §1

[8] = system: RD-ES
Outline: as §1

[9] = system: SW684
Outline: as §1

[10] = system: SYO-1
Outline: as §1

[11] = system: KHOS-NP
Outline: as §1

[12] = system: HT1080
Outline: as §1

CO[C@H]1C[C@@H]2CC[C@@H](C)[C@@](O)(O2)C(=O)C(=O)N2CCCC[C@H]2C(=O)O[C@H]([C@H](C)C[C@@H]2CC[C@@H](O)[C@H](OC)C2)CC(=O)[C@H](C)/C=C(\C)[C@@H](O)[C@@H](OC)C(=O)[C@H](C)C[C@H](C)/C=C/C=C/C=C/1C [Rapamycin]
Settings | relative viability
[1], 0.00017 µM | 0.91
[1], 0.00051 µM | 0.851
[1], 0.00152 µM | 0.825
[1], 0.00457 µM | 0.796
[1], 0.01372 µM | 0.795
[1], 0.04115 µM | 0.782
[1], 0.1235 µM | 0.747
[1], 0.3704 µM | 0.714
[1], 1.111 µM | 0.7
[1], 3.333 µM | 0.674
[1], 10 µM | 0.683
[2], 0.00017 µM | 0.924
[2], 0.00051 µM | 0.758
[2], 0.00152 µM | 0.697
[2], 0.00457 µM | 0.621
[2], 0.01372 µM | 0.58
[2], 0.04115 µM | 0.567
[2], 0.1235 µM | 0.551
[2], 0.3704 µM | 0.526
[2], 1.111 µM | 0.554
[2], 3.333 µM | 0.522
[2], 10 µM | 0.5
[3], 0.00017 µM | 0.95
[3], 0.00051 µM | 0.87
[3], 0.00152 µM | 0.808
[3], 0.00457 µM | 0.702
[3], 0.01372 µM | 0.629
[3], 0.04115 µM | 0.579
[3], 0.1235 µM | 0.592
[3], 0.3704 µM | 0.573
[3], 1.111 µM | 0.588
[3], 3.333 µM | 0.605
[3], 10 µM | 0.568
[4], 0.00017 µM | 0.9934
[4], 0.00051 µM | 0.975
[4], 0.00152 µM | 0.942
[4], 0.00457 µM | 0.858
[4], 0.01372 µM | 0.809
[4], 0.04115 µM | 0.775
[4], 0.1235 µM | 0.766
[4], 0.3704 µM | 0.746
[4], 1.111 µM | 0.734
[4], 3.333 µM | 0.7183
[4], 10 µM | 0.688
[5], 0.00017 µM | 0.867
[5], 0.00051 µM | 0.787
[5], 0.00152 µM | 0.729
[5], 0.00457 µM | 0.659
[5], 0.01372 µM | 0.602
[5], 0.04115 µM | 0.565
[5], 0.1235 µM | 0.543
[5], 0.3704 µM | 0.548
[5], 1.111 µM | 0.561
[5], 3.333 µM | 0.567
[5], 10 µM | 0.553
[6], 0.00017 µM | 0.901
[6], 0.00051 µM | 0.856
[6], 0.00152 µM | 0.815
[6], 0.00457 µM | 0.784
[6], 0.01372 µM | 0.759
[6], 0.04115 µM | 0.717
[6], 0.1235 µM | 0.687
[6], 0.3704 µM | 0.676
[6], 1.111 µM | 0.634
[6], 3.333 µM | 0.613
[6], 10 µM | 0.589
[7], 0.00017 µM | 0.98
[7], 0.00051 µM | 0.999
[7], 0.00152 µM | 1.01
[7], 0.00457 µM | 0.972
[7], 0.01372 µM | 0.97
[7], 0.04115 µM | 0.926
[7], 0.1235 µM | 0.962
[7], 0.3704 µM | 0.877
[7], 1.111 µM | 0.918
[7], 3.333 µM | 0.891
[7], 10 µM | 0.92
[8], 0.00017 µM | 0.966
[8], 0.00051 µM | 0.962
[8], 0.00152 µM | 0.868
[8], 0.00457 µM | 0.833
[8], 0.01372 µM | 0.77
[8], 0.04115 µM | 0.712
[8], 0.1235 µM | 0.665
[8], 0.3704 µM | 0.677
[8], 1.111 µM | 0.687
[8], 3.333 µM | 0.647
[8], 10 µM | 0.611
[9], 0.00017 µM | 0.9947
[9], 0.00051 µM | 0.936
[9], 0.00152 µM | 0.812
[9], 0.00457 µM | 0.743
[9], 0.01372 µM | 0.678
[9], 0.04115 µM | 0.681
[9], 0.1235 µM | 0.718
[9], 0.3704 µM | 0.718
[9], 1.111 µM | 0.75
[9], 3.333 µM | 0.752
[9], 10 µM | 0.682
[10], 0.00017 µM | 0.954
[10], 0.00051 µM | 0.893
[10], 0.00152 µM | 0.875
[10], 0.00457 µM | 0.836
[10], 0.01372 µM | 0.826
[10], 0.04115 µM | 0.792
[10], 0.1235 µM | 0.767
[10], 0.3704 µM | 0.734
[10], 1.111 µM | 0.706
[10], 3.333 µM | 0.683
[10], 10 µM | 0.66
[11], 0.00017 µM | 1.04
[11], 0.00051 µM | 1.05
[11], 0.00152 µM | 1.07
[11], 0.00457 µM | 1.07
[11], 0.01372 µM | 1.06
[11], 0.04115 µM | 1.06
[11], 0.1235 µM | 1.03
[11], 0.3704 µM | 1.04
[11], 1.111 µM | 1.05
[11], 3.333 µM | 1.02
[11], 10 µM | 0.882
[12], 0.00017 µM | 1.04
[12], 0.00051 µM | 1.03
[12], 0.00152 µM | 1.02
[12], 0.00457 µM | 0.97
[12], 0.01372 µM | 0.966
[12], 0.04115 µM | 0.972
[12], 0.1235 µM | 0.932
[12], 0.3704 µM | 0.917
[12], 1.111 µM | 0.905
[12], 3.333 µM | 0.869
[12], 10 µM | 0.851

C=CC(=O)Nc1cccc(Nc2nc(Nc3ccc(N4CCN(C(C)=O)CC4)cc3OC)ncc2C(F)(F)F)c1 [Rociletinib]
Settings | relative viability
[1], 0.00017 µM | 1.04
[1], 0.00051 µM | 1
[1], 0.00152 µM | 1.01
[1], 0.00457 µM | 1.06
[1], 0.01372 µM | 1
[1], 0.04115 µM | 1.01
[1], 0.1235 µM | 1.01
[1], 0.3704 µM | 0.962
[1], 1.111 µM | 0.769
[1], 3.333 µM | 0.594
[1], 10 µM | 0.338
[2], 0.00017 µM | 1.07
[2], 0.00051 µM | 1.089
[2], 0.00152 µM | 1.07
[2], 0.00457 µM | 1.07
[2], 0.01372 µM | 1.05
[2], 0.04115 µM | 1.03
[2], 0.1235 µM | 1.04
[2], 0.3704 µM | 0.961
[2], 1.111 µM | 0.847
[2], 3.333 µM | 0.638
[2], 10 µM | 0.373
[3], 0.00017 µM | 1.04
[3], 0.00051 µM | 1.078
[3], 0.00152 µM | 1.08
[3], 0.00457 µM | 1.112
[3], 0.01372 µM | 1.11
[3], 0.04115 µM | 1.08
[3], 0.1235 µM | 1.11
[3], 0.3704 µM | 1.05
[3], 1.111 µM | 0.911
[3], 3.333 µM | 0.594
[3], 10 µM | 0.293
[4], 0.00017 µM | 1.08
[4], 0.00051 µM | 1.06
[4], 0.00152 µM | 1.07
[4], 0.00457 µM | 1.07
[4], 0.01372 µM | 1.07
[4], 0.04115 µM | 1.03
[4], 0.1235 µM | 1.08
[4], 0.3704 µM | 1.02
[4], 1.111 µM | 0.928
[4], 3.333 µM | 0.774
[4], 10 µM | 0.491
[5], 0.00017 µM | 1.1
[5], 0.00051 µM | 1.08
[5], 0.00152 µM | 1.07
[5], 0.00457 µM | 1.07
[5], 0.01372 µM | 1.05
[5], 0.04115 µM | 1.048
[5], 0.1235 µM | 1.04
[5], 0.3704 µM | 1.01
[5], 1.111 µM | 0.89
[5], 3.333 µM | 0.713
[5], 10 µM | 0.475
[6], 0.00017 µM | 1.04
[6], 0.00051 µM | 1.07
[6], 0.00152 µM | 1.04
[6], 0.00457 µM | 1.05
[6], 0.01372 µM | 1.04
[6], 0.04115 µM | 1.02
[6], 0.1235 µM | 1.05
[6], 0.3704 µM | 1.02
[6], 1.111 µM | 0.827
[6], 3.333 µM | 0.54
[6], 10 µM | 0.211
[7], 0.00017 µM | 1.01
[7], 0.00051 µM | 0.925
[7], 0.00152 µM | 0.9024
[7], 0.00457 µM | 0.9205
[7], 0.01372 µM | 0.902
[7], 0.04115 µM | 0.924
[7], 0.1235 µM | 0.89
[7], 0.3704 µM | 0.812
[7], 1.111 µM | 0.697
[7], 3.333 µM | 0.573
[7], 10 µM | 0.343
[8], 0.00017 µM | 0.965
[8], 0.00051 µM | 0.962
[8], 0.00152 µM | 0.961
[8], 0.00457 µM | 0.979
[8], 0.01372 µM | 0.967
[8], 0.04115 µM | 1
[8], 0.1235 µM | 0.937
[8], 0.3704 µM | 0.889
[8], 1.111 µM | 0.673
[8], 3.333 µM | 0.453
[8], 10 µM | 0.125
[9], 0.00017 µM | 1.13
[9], 0.00051 µM | 1.16
[9], 0.00152 µM | 1.16
[9], 0.00457 µM | 1.17
[9], 0.01372 µM | 1.18
[9], 0.04115 µM | 1.18
[9], 0.1235 µM | 1.14
[9], 0.3704 µM | 1.1
[9], 1.111 µM | 1.004
[9], 3.333 µM | 0.908
[9], 10 µM | 0.666
[10], 0.00017 µM | 0.99
[10], 0.00051 µM | 0.983
[10], 0.00152 µM | 0.949
[10], 0.00457 µM | 0.93
[10], 0.01372 µM | 0.893
[10], 0.04115 µM | 0.903
[10], 0.1235 µM | 0.872
[10], 0.3704 µM | 0.867
[10], 1.111 µM | 0.749
[10], 3.333 µM | 0.459
[10], 10 µM | 0.118
[11], 0.00017 µM | 1.09
[11], 0.00051 µM | 1.1
[11], 0.00152 µM | 1.113
[11], 0.00457 µM | 1.09
[11], 0.01372 µM | 1.09
[11], 0.04115 µM | 1.06
[11], 0.1235 µM | 1.09
[11], 0.3704 µM | 1.07
[11], 1.111 µM | 1.06
[11], 3.333 µM | 1.025
[11], 10 µM | 0.537
[12], 0.00017 µM | 1.07
[12], 0.00051 µM | 1.06
[12], 0.00152 µM | 1.05
[12], 0.00457 µM | 1.06
[12], 0.01372 µM | 1.04
[12], 0.04115 µM | 1.03
[12], 0.1235 µM | 1.06
[12], 0.3704 µM | 1.1
[12], 1.111 µM | 1.03
[12], 3.333 µM | 0.997
[12], 10 µM | 0.454
